{"source": "patent US8840931B2", "about": "“Pharmaceutical compositions for dehydrating, atrophying and eliminating pathological tissues” (priority 2008, dated 2014)", "key": {"bleeding wounds": {"system": "bleeding wounds", "assay": "Treatment of bleeding wounds for hemostasis", "format": "in vivo", "conditions": "used for hemostasis", "text": "The inventors determined that the mechanism of this phenomenon was the dehydration, atrophy, and elimination of blood and blood tissues, rather than the well-known mechanism of an astringent of Monsell in the literature in which hemostasis was caused by forming a thrombus of blood platelet and fibrin, aggregation of erythrocyte, and accelerated coagulation of blood."}, "related diseases": {"system": "related diseases", "assay": "Clinical experiment observations (overall statement)", "conditions": "human, in vivo"}}}
{"substance": "ferric subsulfate", "values": [{"measurement": "observation on bleeding wounds", "setting": "bleeding wounds", "result": "formation of black solid particulate matter was observed"}, {"measurement": "clinical use to treat related diseases", "setting": "related diseases", "result": "successfully used"}]}
